# Source: PubChem BioAssay (NCI)
#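 How tested: cells in 96-well plates exposed to compound for 48 hours at five concentrations. GI50: concentration for 50% inhibition of growth. TGI marks complete inhibition of growth.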
# Assays:
# Assay in all cases: inhibition of tumour cell growth, NCI panel, 48 h
# [1] = test system: A549 NSCLC
# [2] = test system: CAKI-1 renal
# [3] = test system: HOP-92 NSCLC
# [4] = test system: DU-145 prostate
# [5] = test system: LOX IMVI melanoma
# [6] = test system: MDA-MB-231 breast
# [7] = test system: MOLT-4 leukemia
# [8] = test system: OVCAR-5 ovarian
# [9] = test system: SK-MEL-28 melanoma
# [10] = test system: HS 578T breast
SMILES,TGI [1] [µM],TGI [2] [µM],TGI [3] [µM],TGI [4] [µM],TGI [5] [µM],TGI [6] [µM],TGI [7] [µM],TGI [8] [µM],TGI [9] [µM],TGI [10] [µM],GI50 [1] [µM],GI50 [2] [µM],GI50 [3] [µM],GI50 [4] [µM],GI50 [5] [µM],GI50 [6] [µM],GI50 [7] [µM],GI50 [8] [µM],GI50 [9] [µM],GI50 [10] [µM]
COc1cc(NS(C)(=O)=O)ccc1N1Cc2cnc3ccc4[nH]ccc1c4c23,> 100,> 100,> 100,> 100,41.6,92.4,62.5,> 100,> 100,> 100,–,–,–,–,–,–,–,–,–,–
CCCCCCc1cc2cc(C(=O)Nc3cccc(C(F)(F)F)c3)c(=N)oc2cc1O,10.9,11.5,2.14,3.3,3.09,7.69,4.19,69.7,27.6,9.99,–,–,–,–,–,–,–,–,–,–
COc1ccc2c(c1)CCC1C2CCC2(C)C1CC[C@@]2(O)CNC(=O)/C=C/c1ccc(O)c(O)c1 (some centres not stated),29.3,> 100,14.7,> 100,5.57,10,2.28,> 100,31.8,> 100,3.95,2.68,2.23,3.11,1.58,2.43,0.382,16.5,4.33,7.62
COc1cccc2c(NNc3ccc(Cl)cc3)c3ccc([N+](=O)[O-])cc3nc12,28.4,15.2,27.7,53.5,36.1,27.5,11.5,91.9,> 100,50.6,–,–,–,–,–,–,–,–,–,–
CC(=O)CC(=O)Nn1c(-c2cccs2)nc2ccc(I)cc2c1=O,> 100,> 74,> 100,> 96.6,> 90,63.7,> 100,> 100,> 100,71.3,–,–,–,–,–,16.4,–,–,–,18.9
CC1(C)CC(=O)C2=C(C1)OC1=C(CC(C)(C)CC1=O)C2c1ccccc1Cl (configuration not stated),> 100,> 100,> 100,> 100,> 100,> 100,> 100,> 100,> 100,> 100,–,–,–,–,–,–,–,–,–,–
O=C1N[C@@H](c2c[nH]c3ccc(Br)cc23)C(=O)N[C@H]1c1c[nH]c2ccc(Br)cc12,33.8,30.4,15.5,27.3,20.9,26.3,20.1,28.8,28.5,34.3,–,–,–,–,–,–,–,–,–,–
O=S(=O)(CC#CCS(=O)(=O)c1ccccc1)c1ccccc1,37.5,3.42,3.39,17.4,3.32,26.5,> 42.2,19.7,25.7,> 36.5,–,–,–,–,–,–,–,–,–,–
O=C1c2c(ccc3c2CCCC3)CC12Cc1ccccc1C2,> 92.6,> 77.7,51.7,> 100,29.4,52.7,> 35.4,> 67.6,> 80.4,> 100,–,–,–,–,–,–,–,–,–,–
O=S(=O)(N1CCCCN(S(=O)(=O)C(F)(F)F)CCCN(S(=O)(=O)C(F)(F)F)CCCN(S(=O)(=O)C(F)(F)F)CCCCN(S(=O)(=O)C(F)(F)F)CCCN(S(=O)(=O)C(F)(F)F)CCC1)C(F)(F)F,> 100,> 100,> 100,> 100,> 100,> 100,> 100,> 100,> 100,92.4,–,–,–,–,–,–,–,–,–,–
Cc1ccc(-c2cn3c(nc4ccccc43)c(C)n2)cc1,> 100,> 100,98.1,> 100,> 100,> 100,> 100,> 100,> 100,> 100,–,–,–,–,–,–,–,–,–,–
C=C(Cl)C(Cl)(CBr)CCC(Cl)C(C)C (configuration not stated),27.1,5.74,3.52,3.77,26.2,9.99,> 62.9,23.9,5.62,4.07,–,–,–,–,–,–,–,–,–,–
Nc1cc(N)c2nc(-c3ccccc3)c(Sc3ccc(F)cc3)nc2c1,30.9,36.6,54.8,37.7,41.2,38,> 100,46.1,53.4,62,13.5,18.1,22.9,19.8,22.7,17.5,> 100,19,23.4,27
COc1c(-c2ccc3c(c2)OCO3)oc2cc3c(c(OC)c2c1=O)OCO3,54,62.4,79.6,> 100,32.1,> 100,> 100,> 100,> 100,93.9,–,–,–,–,–,–,–,–,–,–
O=C(O)CCCCCNC(=O)CCC(CN(CC(=O)OCc1ccccc1)CC(=O)OCc1ccccc1)N(CC(=O)OCc1ccccc1)CC(=O)OCc1ccccc1 (configuration not stated),33.2,33.3,31.1,33.7,38.3,38.6,37.2,32.6,33.7,41.9,–,–,–,–,–,–,–,–,–,–
